Laboratory results: patent US20050130894A1, “Process for the synchronization of ovulation for timed breeding without heat detection” (priority 2003, published 2005)

Tests used:
Format in all cases: in vivo, swine
postpartum sows [1] = experiment: Litter size after deslorelin treatment in postpartum sows, three farm sites (Example 4); conditions: regardless of estrus detection, Tables 3-5
Text: (§1) Postpartum sows were randomly distributed into three different groups comprised of Controls, Treatment 1, and Treatment 2, with the exception of Site 3, which was divided into two groups, Control and Treatment 2. Control sows were detected for estrus following weaning, and bred following the normal standard operating procedures for the farms on which they resided. Treatment 1 sows were detected for estrus following weaning, and received a 50 mcg dose of deslorelin in the morning when standing and were bred by AI 4 hours later and again at 24+/−2 hours later. Treatment 2 sows received a 50 mcg dose of deslorelin in SAIB at 96 or 120 hours post-weaning and were bred with a single insemination 28+/−2 hours later with no regard to estrus detection.

postpartum sows [2] = experiment: Pregnancy rate after deslorelin treatment in sows, summary of data of Tables 2-5; conditions: Table 6
Experimental: as §1, with “Approximately 170 postpartum sows were randomly divided into two equal groups comprised of controls and treated. Following weaning, the controls were detected for estrus and bred following the normal standard operating procedures for the farms on which they resided. The treated sows received a 50 mcg dose of deslorelin in SAIB at 96 hours post-weaning and were bred with a single insemination 28+/−2 hours later with no regard to estrus detection. The sows were examined for pregnancy by ultrasound at 21 days and slaughtered around 28 days post breeding. The entire reproductive tract was removed and corpora lutea and embryos were counted. Postpartum” for “Postpartum”, “detection. […]” for “detection.”

postpartum sows [3] = experiment: Single timed injection 96 hours post-weaning, single timed insemination without estrus detection (Example 3); conditions: 50 mcg in SAIB at 96 hours post-weaning
Experimental: Approximately 170 postpartum sows were randomly divided into two equal groups comprised of controls and treated. Following weaning, the controls were detected for estrus and bred following the normal standard operating procedures for the farms on which they resided. The treated sows received a 50 mcg dose of deslorelin in SAIB at 96 hours post-weaning and were bred with a single insemination 28+/−2 hours later with no regard to estrus detection. The sows were examined for pregnancy by ultrasound at 21 days and slaughtered around 28 days post breeding. The entire reproductive tract was removed and corpora lutea and embryos were counted.

mature postpartum sows = experiment: Intravulvar injection at estrus detection in mature postpartum sows, AI breeding (Example 2)
Experimental: Sows were assigned randomly in blocks of two to either control or to be injected intravulvar with 50 mcg of deslorelin in SAIB at the time of estrus detection for sows first detected in estrus in the a.m. and 12 hours later for those first detected in estrus in the p.m. Treated animals were bred AI upon detected estrus and again 24 hours later if still in estrus. Controls received a saline injection on first detected estrus behavior estrus detection and were bred according to the farm's normal procedures.

CCNC(=O)[C@@H]1CCCN1C(=O)[C@H](CCCN=C(N)N)NC(=O)[C@H](CC(C)C)NC(=O)[C@@H](Cc1c[nH]c2ccccc12)NC(=O)[C@H](Cc1ccc(O)cc1)NC(=O)[C@H](CO)NC(=O)[C@H](Cc1c[nH]c2ccccc12)NC(=O)[C@H](Cc1cnc[nH]1)NC(=O)[C@@H]1CCC(=O)N1 [Deslorelin, deslorelin]
Litter sizes (in words) (postpartum sows [1]): normal litter sizes
Pregnancy rates (in words) (postpartum sows [2]): normal pregnancy rates were obtained
Embryo Survival (postpartum sows [3]): 64%
Sows Pregnant (postpartum sows [3]; single insemination 28+/-2 hours later, 84 in group): 60
Pregnancy Rate (postpartum sows [3]; single timed insemination, no estrus detection): 71%
Pregnancy Rate (mature postpartum sows; 50 μg deslorelin acetate (1 ml) intravulvar at first estrus detection, AI, AI again if in estrus next day, n = 75): 91%
Length of Estrus (mature postpartum sows; 50 μg deslorelin acetate (1 ml) intravulvar at first estrus detection, n = 69): 40.81 h
Live piglet number, Deslorelin versus Saline sows (difference) (mature postpartum sows; 50 μg intravulvar at first estrus detection, live piglets born per litter, greater than control): Live piglet number 0.6> in Deslorelin versus Saline sows.
